Where a SMILES comes first, the peptide text is derived from it. Bridges are numbered along the chain shown (N, C = ends). [ ]: non-standard residue; d: D form. The star is where a group is joined. Phe(4-COOH) = N[C@@H](Cc1ccc(C(=O)O)cc1)C(=O)O; Bip = N[C@@H](Cc1ccc(-c2ccccc2)cc1)C(=O)O; Cha = N[C@@H](CC1CCCCC1)C(=O)O; hSer = N[C@@H](CCO)C(=O)O; Carboxymethyl = O=C(O)C*; NMeA = CN[C@@H](C)C(=O)O; Aun = NCCCCCCCCCCC(=O)O; Dab = NCC[C@H](N)C(=O)O; AEEA = NCCOCCOCC(=O)O
target: T1, PD-1/PD-L1 interaction (PE-labeled human PD-L1-Ig binding to Jurkat cell line over-expressing human PD-1) (Homo sapiens, UniProt Q15116); experiment: Jurkat-PD-1 Cell Binding High-Content Screening Assay (CBA); details: Jurkat-hPD-1 cells, PE-labeled PD-L1-Ig 20 nM final; read-out: Jurkat HPD1 PDL1 IC50
T1 construct: expressed in transfected cells; host or cells: Jurkat
Summary of the method: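 High-content imaging read-out of PE-PD-L1-Ig binding (20 nM final, 1 h) to Jurkat-hPD-1 cells, after 2 h compound exposure at 37 °C in DMEM with 10% FCS. Nuclei counterstained with Hoechst 33342 after paraformaldehyde fixation.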

T1 sequence (Q15116 25-288): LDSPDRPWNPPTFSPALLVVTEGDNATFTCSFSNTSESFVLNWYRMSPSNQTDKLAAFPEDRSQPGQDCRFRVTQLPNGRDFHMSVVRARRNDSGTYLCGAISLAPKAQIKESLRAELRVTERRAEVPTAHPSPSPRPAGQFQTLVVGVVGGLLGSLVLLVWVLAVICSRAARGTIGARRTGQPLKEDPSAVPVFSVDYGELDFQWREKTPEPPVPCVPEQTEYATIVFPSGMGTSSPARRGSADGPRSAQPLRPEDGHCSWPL

SMILES	IC50 [nM]
CC(=O)NCCCC[C@@H]1NC(=O)[C@H](Cc2ccc(-c3ccccc3)cc2)NC(=O)[C@H](C(C)C)NC(=O)[C@H](Cc2c[nH]c3ccccc23)NC(=O)[C@H](CC(=O)O)NC(=O)[C@H](Cc2ccc(OCC(=O)O)cc2)NC(=O)[C@H](Cc2ccc(OCC(=O)O)cc2)NC(=O)CSC[C@@H](C(=O)NCCOCCOCC(=O)NCCCCCCCCCCC(=O)O)NC(=O)[C@H](CCCCN)NC(=O)[C@H](C(C)C)NC(=O)[C@H](CC2CCCCC2)NC(=O)[C@H](CCN)NC(=O)[C@@H](CC(C)C)NC(=O)[C@H](C)N(C)C1=O [Example 2224] ({CH2CO}-Y(Carboxymethyl)Y(Carboxymethyl)DWV[Bip]K(Ac)[NMeA][dL][Dab][Cha]VKC[AEEA][Aun]-OH; thioether N-14)	5.7
CC(C)C[C@@H]1NC(=O)[C@H](Cc2c[nH]c3ccccc23)NC(=O)[C@H](CC(=O)O)NC(=O)[C@H](Cc2ccc(C(=O)O)cc2)NC(=O)[C@H](Cc2ccc(OCC(=O)O)cc2)NC(=O)CSC[C@@H](C(=O)NCCOCCOCC(=O)NCCCCCCCCCCC(=O)O)NC(=O)[C@H](CO)NC(=O)[C@H](C(C)C)NC(=O)[C@H](CC2CCCCC2)NC(=O)[C@H](CCN)NC(=O)[C@@H](CC(C)C)NC(=O)[C@H](C)N(C)C(=O)[C@H](C(C)C)NC(=O)[C@H](Cc2ccc(-c3ccccc3)cc2)NC1=O [Example 2225] ({CH2CO}-Y(Carboxymethyl)[Phe(4-COOH)]DWL[Bip]V[NMeA][dL][Dab][Cha]VSC[AEEA][Aun]-OH; thioether N-14)	9.7
CC(C)C[C@@H]1NC(=O)[C@H](Cc2c[nH]c3ccccc23)NC(=O)[C@H](CC(=O)O)NC(=O)[C@H](Cc2ccc(C(=O)O)cc2)NC(=O)[C@H](Cc2ccc(OCC(=O)O)cc2)NC(=O)CSC[C@@H](C(=O)NCCOCCOCC(=O)NCCCCCCCCCCC(=O)O)NC(=O)[C@H](CCO)NC(=O)[C@H](C(C)C)NC(=O)[C@H](CC2CCCCC2)NC(=O)[C@H](CCN)NC(=O)[C@@H](CC(C)C)NC(=O)[C@H](C)N(C)C(=O)[C@H](CCC(N)=O)NC(=O)[C@H](Cc2ccc(-c3ccccc3)cc2)NC1=O [Example 2226] ({CH2CO}-Y(Carboxymethyl)[Phe(4-COOH)]DWL[Bip]Q[NMeA][dL][Dab][Cha]V[hSer]C[AEEA][Aun]-OH; thioether N-14)	26.7
CC(C)C[C@@H]1NC(=O)[C@H](Cc2c[nH]c3ccccc23)NC(=O)[C@H](CC(=O)O)NC(=O)[C@H](Cc2ccc(C(=O)O)cc2)NC(=O)[C@H](Cc2ccc(OCC(=O)O)cc2)NC(=O)CSC[C@@H](C(=O)NCCOCCOCC(=O)NCCCCCCCCCCC(=O)O)NC(=O)[C@H](CCO)NC(=O)[C@H](C(C)C)NC(=O)[C@H](CC2CCCCC2)NC(=O)[C@H](CCN)NC(=O)[C@@H](CC(C)C)NC(=O)[C@H](C)N(C)C(=O)[C@H](CCC(N)=O)NC(=O)[C@H](Cc2ccc(-c3ccccc3)cc2)NC1=O [Example 2227] ({CH2CO}-Y(Carboxymethyl)[Phe(4-COOH)]DWL[Bip]Q[NMeA][dL][Dab][Cha]V[hSer]C[AEEA][Aun]-OH; thioether N-14)	34
CC(C)C[C@@H]1NC(=O)[C@H](Cc2c[nH]c3ccccc23)NC(=O)[C@H](CC(=O)O)NC(=O)[C@H](Cc2ccc(C(=O)O)cc2)NC(=O)[C@H](Cc2ccc(OCC(=O)O)cc2)NC(=O)CSC[C@@H](C(=O)NCCOCCOCC(=O)NCCCCCCCCCCC(=O)O)NC(=O)[C@H](CO)NC(=O)[C@H](C(C)C)NC(=O)[C@H](CC2CCCCC2)NC(=O)[C@H](CCN)NC(=O)[C@@H](CC(C)C)NC(=O)[C@H](C)N(C)C(=O)[C@H](Cc2ccc(O)cc2)NC(=O)[C@H](Cc2ccc(-c3ccccc3)cc2)NC1=O [Example 2228] ({CH2CO}-Y(Carboxymethyl)[Phe(4-COOH)]DWL[Bip]Y[NMeA][dL][Dab][Cha]VSC[AEEA][Aun]-OH; thioether N-14)	52

From patent US20260070945A1, “MACROCYCLIC IMMUNOMODULATORS” (Bristol-Myers Squibb Company, priority 2022, published 2026)
